target: T1, rat MCH1 receptor (Rattus norvegicus, UniProt P97639); assay: Radioligand binding assay at cloned rat MCH1 receptor ([3H]Compound A); conditions: cloned rat MCH1, Peakr293 cell membranes, 0.08 nM [3H]Compound A, 25° C., 90 minutes; read-out: Ki(MCH-1)
T1 construct: operatively linked to DNA encoding the rat MCH1 receptor so as to permit expression thereof; expressed in transfected cells; host or cells: Human embryonic kidney Peak rapid 293 (Peakr293) cells, transient calcium phosphate transfection, membranes
T1 sequence (P97639 whole entry): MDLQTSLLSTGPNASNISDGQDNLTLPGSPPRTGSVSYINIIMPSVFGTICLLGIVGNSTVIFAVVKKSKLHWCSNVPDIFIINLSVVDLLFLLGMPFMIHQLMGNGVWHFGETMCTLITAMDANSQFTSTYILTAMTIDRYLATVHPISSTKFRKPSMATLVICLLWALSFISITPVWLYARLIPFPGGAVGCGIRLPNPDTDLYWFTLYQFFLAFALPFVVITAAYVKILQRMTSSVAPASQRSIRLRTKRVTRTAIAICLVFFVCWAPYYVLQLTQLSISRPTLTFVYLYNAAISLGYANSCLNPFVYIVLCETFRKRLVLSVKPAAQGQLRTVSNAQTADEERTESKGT

Ki | SMILES
4.6 nM | Cc1ccc(NC(=O)C(C)C)cc1C1CCN(CCCNC(=O)C2(c3ccc(Cl)cc3)CCCCC2)CC1 [Example 85]
3.2 nM | Cc1ccc(NC(=O)C(C)C)cc1C1CCN(CCCNC(=O)C2(c3ccc(Cl)cc3)CCC2)CC1 [Example 86]
6.4 nM | CCCC(=O)Nc1cccc(C2CCN(CCCNC(=O)C3(c4ccc(F)cc4)CCCCC3)CC2)c1 [Example 87, N-(3-{4-[3-(BUTYRYLAMINO)PHENYL]-1-PIPERIDINYL}PROPYL)-1-(4-FLUOROPHENYL) CYCLOHEXANECARBOXAMIDE]
23 nM | CC(C)C(=O)Nc1cccc(C2CCN(CCCNC(=O)C(C)(C)c3ccc(Cl)cc3)CC2)n1 [Example 88]
10.8 nM | Cc1ccc(NC(=O)C(C)C)cc1C1CCN(CCCNC(=O)C2(c3ccc(Cl)cc3)CC2)CC1 [Example 89]
52.2 nM | CC(C)C(=O)Nc1cccc(C2CCN(CCCNC(=O)C(C)c3ccc(Cl)cc3)CC2)n1 (stereo not shown) [Example 90, 2-(4-CHLOROPHENYL)-N-(3-{4-[6-(ISOBUTYRYLAMINO)-2-PYRIDINYL]-1-PIPERIDINYL} PROPYL)PROPANAMIDE]
2.9 nM | Cc1ccc(NC(=O)C(C)C)cc1C1CCN(CCCNC(=O)C(C)(C)c2ccc(Cl)cc2)CC1 [Example 91]
2.6 nM | Cc1ccc(NC(=O)C(C)C)cc1C1CCN(CCCNC(=O)C2(c3ccc(F)cc3)CCCCC2)CC1 [Example 92]
4.9 nM | Cc1ccc(NC(=O)C(C)C)cc1C1CCN(CCCNC(=O)C2(c3ccc(F)cc3)CCCC2)CC1 [Example 93]
3.1 nM | Cc1ccc(NC(=O)C(C)C)cc1C1CCN(CCCNC(=O)C(c2ccccc2)(c2ccccc2)c2ccccc2)CC1 [Example 94]
23.5 nM | CC(=O)Nc1cccc(C2CCN(CCCNC(=O)C(C)c3ccc(Cl)cc3)CC2)c1 (stereo not shown) [Example 95, N-(3-{4-[3-(ACETYLAMINO)PHENYL]-1-PIPERIDINYL}PROPYL)-2-(4-CHLOROPHENYL) PROPANAMIDE]
2.6 nM | Cc1ccc(NC(=O)C(C)C)cc1C1CCN(CCCNC(=O)C(C)(c2ccccc2)c2ccccc2)CC1 [Example 96]
3.6 nM | CCCC(=O)Nc1cccc(C2CCN(CCCNC(=O)C(c3ccccc3)(c3ccccc3)c3ccccc3)CC2)c1 [Example 97]
4.3 nM | CCCC(=O)Nc1cccc(C2CCN(CCCNC(=O)C(C)(c3ccccc3)c3ccccc3)CC2)c1 [Example 98, N-[3-(1-{3-[(2,2-DIPHENYLPROPANOYL)AMINO]PROPYL}-4-PIPERIDINYL)PHENYL] BUTANAMIDE]
2.9 nM | CCCC(=O)Nc1cccc(C2CCN(CCCNC(=O)C3(c4ccc(Cl)cc4)CCCCC3)CC2)c1 [Example 99, N-(3-{4-[3-(BUTYRYLAMINO)PHENYL]-1-PIPERIDINYL}PROPYL)-1-(4-CHLOROPHENYL) CYCLOHEXANECARBOXAMIDE]
5 nM | Cc1ccc(NC(=O)C(C)C)cc1C1CCN(CCCNC(=O)C(C)c2ccc(Cl)cc2)CC1 (stereo not shown) [Example 100]
11.2 nM | CCCC(=O)Nc1cccc(C2CCN(CCCNC(=O)C3(c4ccc(F)cc4)CCCC3)CC2)c1 [Example 101, N-(3-{4-[3-(BUTYRYLAMINO)PHENYL]-1-PIPERIDINYL}PROPYL)-1-(4-FLUOROPHENYL) CYCLOPENTANECARBOXAMIDE]
7.9 nM | CCCC(=O)Nc1cccc(C2CCN(CCCNC(=O)C3(c4ccc(Cl)cc4)CCCC3)CC2)c1 [Example 102, N-(3-{4-[3-(BUTYRYLAMINO)PHENYL]-1-PIPERIDINYL}PROPYL)-1-(4-CHLOROPHENYL) CYCLOPENTANECARBOXAMIDE]
8 nM | CC(=O)Nc1cccc(C2CCN(CCCNC(=O)C(C)(c3ccccc3)c3ccccc3)CC2)c1 [Example 103, N-(3-{4-[3-(ACETYLAMINO)PHENYL]-1-PIPERIDINYL}PROPYL)-2,2-DIPHENYL PROPANAMIDE]
0.9 nM | CCCC(=O)Nc1cc(C2CCN(CCCNC(=O)C(c3ccc(F)cc3)c3ccc(F)cc3)CC2)ccc1F [Example 104]

Further lines, the molecule ahead of its results:

SMILES | Ki
CC(C)C(=O)Nc1cccc(C2CCN(CCCNC(=O)C(c3ccccc3)(c3ccccc3)c3ccccc3)CC2)c1 [Example 59] | 4.3 nM
CCC(=O)Nc1cccc(C2CCN(CCCNC(=O)C3(c4ccc(F)cc4)CCCC3)CC2)c1 [Example 60] | 41.3 nM
CCC(=O)Nc1cccc(C2CCN(CCCNC(=O)C3(c4ccc(F)cc4)CCCCC3)CC2)c1 [Example 61, 1-(4-FLUOROPHENYL)-N-(3-{4-[3-(PROPIONYLAMINO)PHENYL]-1-PIPERIDINYL} PROPYL)CYCLOHEXANECARBOXAMIDE] | 63.3 nM
CCC(=O)Nc1cccc(C2CCN(CCCNC(=O)C3(c4ccc(Cl)cc4)CCCC3)CC2)c1 [Example 62, 1-(4-CHLOROPHENYL)-N-(3-{4-[3-PROPIONYLAMINO)PHENYL]-1-PIPERIDINYL} PROPYL)CYCLOPENTANECARBOXAMIDE] | 31.7 nM
CCC(=O)Nc1cccc(C2CCN(CCCNC(=O)C3(c4ccc(Cl)cc4)CC3)CC2)c1 [Example 63, 1-(4-CHLOROPHENYL-N-(3-{4-[3-(PROPIONYLAMINO)PHENYL]-1-PIPERIDINYL} PROPYL)CYCLOPROPANECARBOXAMIDE] | 150 nM
CCC(=O)Nc1cccc(C2CCN(CCCNC(=O)C(C)c3ccc(F)cc3)CC2)c1 (stereo not shown) [Example 64, 2-(4-FLUOROPHENYL)-N-(3-{4-[3-PROPIONYLAMINO)PHENYL]-1-PIPERIDINYL} PROPYL) PROPANAMIDE] | 70.7 nM
CCCC(=O)Nc1cc(C2CCN(CCCNC(=O)C(c3ccccc3)c3ccccc3)CC2)ccc1F [Example 65] | 4.9 nM
CC(C)C(=O)Nc1cccc(C2CCN(CCCNC(=O)C3(c4ccc(F)cc4)CCCC3)CC2)n1 [Example 66, 1-(4-FLUOROPHENYL)-N-(3-{4-[6-(ISOBUTYRYLAMINO)-2-pyridinyl]-piperidinyl}propyl) cyclopentanecarboxamide] | 24.4 nM
CC(C)C(=O)Nc1cccc(C2CCN(CCCNC(=O)C3(c4ccc(Cl)cc4)CCCCC3)CC2)n1 [Example 67, 1-(4-CHLOROPHENYL)-N-(3-{4-[6-(ISOBUTYRYLAMINO)-2-PYRIDINYL]-1-PIPERIDINYL} PROPYL)CYCLOHEXANECARBOXAMIDE] | 9.9 nM
CC(C)C(=O)Nc1cccc(C2CCN(CCCNC(=O)C3(c4ccc(F)cc4)CCCCC3)CC2)n1 [Example 68, 1-(4-FLUOROPHENYL)-N-(3-{4-[6-(ISOBUTYRYLAMINO)-2-PYRIDINYL]-1-PIPERIDINYL} PROPYL)CYCLOHEXANECARBOXAMIDE] | 16.9 nM
CCCC(=O)Nc1cccc(C2CCN(CCCNC(=O)C3(c4ccc(Cl)cc4)CC3)CC2)c1 [Example 69, N-(3-{4-[3-(butyrylamino)phenyl]-1-piperidinyl}propyl)-1-(4-chlorophenyl)cyclopropane carboxamide] | 39.9 nM
CC(=O)Nc1cccc(C2CCN(CCCNC(=O)C3(c4ccc(F)cc4)CCCCC3)CC2)c1 [Example 70, N-(3-{4-[3-(ACETYLAMINO)PHENYL]-1-PIPERIDINYL}PROPYL)-1-(4-FLUORO PHENYL)CYCLOHEXANECARBOXAMIDE] | 26.7 nM
CC(=O)Nc1cccc(C2CCN(CCCNC(=O)C3(c4ccc(Cl)cc4)CC3)CC2)c1 [Example 71, N-(3-{4-[3-(ACETYLAMINO)PHENYL]-1-PIPERIDINYL}PROPYL)-1-(4-CHLORO PHENYL) CYCLOPROPANECARBOXAMIDE] | 54.5 nM
CC(=O)Nc1cccc(C2CCN(CCCNC(=O)C3(c4ccc(F)cc4)CCCC3)CC2)c1 [Example 72, N-(3-{4-[3-(ACETYLAMINO)PHENYL]-1-PIPERIDINYL}PROPYL)-1-(4-FLUOROPHENYL) CYCLOPENTANECARBOXAMIDE] | 52.3 nM
CC(C)C(=O)Nc1cccc(C2CCN(CCCNC(=O)C3(c4ccc(Cl)cc4)CCC3)CC2)n1 [Example 73, 1-(4-CHLOROPHENYL)-N-(3-{4-[6-(ISOBUTYRYLAMINO)-2-PYRIDINYL]-1-PIPERIDINYL} PROPYL)CYCLOBUTANECARBOXAMIDE] | 32.4 nM
CC(=O)Nc1cccc(C2CCN(CCCNC(=O)C3(c4ccc(Cl)cc4)CCC3)CC2)c1 [Example 74, N-(3-{4-[3-(ACETYLAMINO)PHENYL]-1-PIPERIDINYL}PROPYL)-1-(4-CHLOROPHENYL) CYCLOBUTANECARBOXAMIDE] | 34.3 nM
CC(=O)Nc1cccc(C2CCN(CCCNC(=O)C3(c4ccc(Cl)cc4)CCCCC3)CC2)c1 [Example 75, N-(3-{4-[3-(ACETYLAMINO)PHENYL]-1-PIPERIDINYL}PROPYL)-1-(4-CHLOROPHENYL) CYCLOHEXANECARBOXAMIDE] | 4.7 nM
CC(C)C(=O)Nc1cccc(C2CCN(CCCNC(=O)C3(c4ccc(Cl)cc4)CC3)CC2)n1 [Example 76, 1-(4-CHLOROPHENYL)-N-(3-{4-[6-(ISOBUTYRYLAMINO)-2-PYRIDINYL]-1-PIPERIDINYL} PROPYL)CYCLOPROPANECARBOXAMIDE] | 48 nM
CCCC(=O)Nc1cccc(C2CCN(CCCNC(=O)C(C)c3ccc(Cl)cc3)CC2)c1 (stereo not shown) [Example 77, N-{3-[1-(3-{[2-(4-CHLOROPHENYL)PROPANOYL]AMINO}PROPYL)-4-PIPERIDINYL] PHENYL}BUTANAMIDE] | 30.7 nM
CC(=O)Nc1cccc(C2CCN(CCCNC(=O)C3(c4ccc(Cl)cc4)CCCC3)CC2)c1 [Example 78, N-(3-{4-[3-(ACETYLAMINO)PHENYL]-1-PIPERIDINYL}PROPYL)-1-(4-CHLOROPHENYL) CYCLOPENTANECARBOXAMIDE] | 6.7 nM
CC(=O)Nc1cccc(C2CCN(CCCNC(=O)C(C)(C)c3ccc(Cl)cc3)CC2)c1 [Example 79, N-(3-{4-[3-(ACETYLAMINO)PHENYL]-1-PIPERIDINYL}PROPYL)-2-(4-CHLORO PHENYL)-2-METHYLPROPANAMIDE] | 5.9 nM
CCCC(=O)Nc1cccc(C2CCN(CCCNC(=O)C(C)(C)c3ccc(Cl)cc3)CC2)c1 [Example 80] | 7.7 nM
Cc1ccc(NC(=O)C(C)C)cc1C1CCN(CCCNC(=O)C2(c3ccc(Cl)cc3)CCCC2)CC1 [Example 81] | 3.2 nM
CC(C)C(=O)Nc1cccc(C2CCN(CCCNC(=O)C(c3ccccc3)(c3ccccc3)c3ccccc3)CC2)n1 [Example 82] | 8.6 nM
CC(C)C(=O)Nc1cccc(C2CCN(CCCNC(=O)C(C)(c3ccccc3)c3ccccc3)CC2)n1 [Example 83] | 10.3 nM
CC(C)C(=O)Nc1cccc(C2CCN(CCCNC(=O)C3(c4ccc(Cl)cc4)CCCC3)CC2)n1 [Example 84] | 12.6 nM

Reference: patent US20060217418A1, “Substituted alkyl amido piperidines” (priority 2001, published 2006)
